Assay results taken from patent US5112382A, “Halopropargyl compounds, compositions, uses and processes of preparation” (Rohm and Haas Company, priority 1990, dated 1992).
Converted amounts (≈) assume the structure as drawn.

Assays:
[1] = tested on: Aureobasidium pullulans; test: MIC, broth two-fold serial dilution test, Apul; format: cell-based; details: read-out: Minimum Inhibitory Concentration (MIC)
Procedure: (§1) A minimum inhibitory concentration (MIC) value is obtained using a broth, two-fold serial dilution test performed as follows: […] A volume of the stock solution is dispensed into culture media to give an initial starting test concentration of 500 ppm compound. The test is carried out by adding and equal volume of broth to each vessel in the dilution series, except for the first vessel. The first vessel contains twice the volume of broth plus the initial concentration of test compound. One half of the broth from the first vessel is transferred to the second vessel. After being mixed, one half the resulting volume is removed from the second vessel and transferred to the third vessel. The entire cycle is repeated sufficiently to give a series of concentrations amounting to 500, 250, 125, 63, 31, 16, 8, and 4 ppm (or 100, 50, 25, 12.5, 6.2, 3.1, 1.6, and 0.8), respectively. Each vessel is then inoculated with a cell suspension of the appropriate test organism. Bacteria are grown in both and fungi on agar slats for a time and at a temperature appropriate to the species being tested. At the end of the growth period, the broth is vortexed to disperse the cells. In the case of fungi, the pores are harvested by pipetting water onto the slant and dislodging the spores with a sterile loop. The cell/spore suspension is standardized by controlling incubation time, temperature, and the volume of the diluent. The suspension is then used to inoculate the vessels containing the broth compound. The vessels are then incubated at the appropriate temperature. After the incubation, the vessels are examined for growth/no growth. The minimum inhibitory concentration (MIC) is defined as the lowest concentration of compound that results in complete inhibition of growth of the test organism.

[2] = tested on: Staphylococcus aureus; test: MIC, broth two-fold serial dilution test, Saur; format: cell-based; details: read-out: Minimum Inhibitory Concentration (MIC)
Procedure: as §1

[3] = tested on: Escherichia coli; test: MIC, broth two-fold serial dilution test, Ecol; format: cell-based; details: read-out: Minimum Inhibitory Concentration (MIC)
Procedure: as §1

[4] = tested on: Pseudomonas fluorescens; test: MIC, broth two-fold serial dilution test, Psfl; format: cell-based; details: read-out: Minimum Inhibitory Concentration (MIC)
Procedure: as §1

[5] = tested on: Botrytis cinerea; test: In-vitro plant fungicide test, BOC; details: read-out: % Control
[6] = tested on: Fusarium roseum; test: microbe, parasite or virus in culture; details: Fusarium sambucinum, read-out: % Control
[7] = tested on: Cochliobolus sativus; test: In-vitro plant fungicide test, HEL; format: cell-based; details: Bipolaris sorokiniana, read-out: % Control; for inhibition of growth at 25 ppm: rate 25 PPM; for inhibition of growth at 50 ppm: rate 50 PPM
[8] = tested on: Pseudomonas aerugenosa; test: MIC, broth two-fold serial dilution test, Psae; format: cell-based; details: read-out: Minimum Inhibitory Concentration (MIC)
Procedure: as §1

[9] = tested on: Piricularia oryzae; test: microbe, parasite or virus in culture; format: cell-based; details: read-out: % Control
[10] = tested on: Pythium ultimum; test: In-vitro plant fungicide test, PYU; format: cell-based; details: Globisporangium ultimum, read-out: % Control; for inhibition of growth at 25 ppm: rate 25 PPM; for inhibition of growth at 50 ppm: rate 50 PPM
[11] = tested on: Phytophthora capsici; test: In-vitro plant fungicide test, PHY; format: cell-based; details: read-out: % Control; for inhibition of growth at 25 ppm: rate 25 PPM; for inhibition of growth at 50 ppm: rate 50 PPM
[12] = tested on: Xanthomonas campestris; test: In-vitro plant fungicide test, XAN; format: cell-based; details: XAN, read-out: % Control; for inhibition of growth at 25 ppm: rate 25 PPM; for inhibition of growth at 50 ppm: rate 50 PPM
[13] = tested on: Rhizoctonia solani; test: In-vitro plant fungicide test, RHI; format: cell-based; details: read-out: % Control; for inhibition of growth at 25 ppm: rate 25 PPM; for inhibition of growth at 50 ppm: rate 50 PPM
[14] = tested on: Aspergillus niger; test: MIC, broth two-fold serial dilution test, Anig; format: cell-based; details: read-out: Minimum Inhibitory Concentration (MIC)
Procedure: as §1

[15] = tested on: Puccinia recondita (f. sp. tritici Races PKB and PLD); test: whole plant or invertebrate; format: in vivo; details: 240 h
[16] = tested on: Phytophthora infestans; test: whole plant or invertebrate; format: in vivo; details: in Solanum lycopersicum, 96 h, read-out: % Control
[17] = tested on: Erysiphe graminis (f. sp. tritici); test: whole plant or invertebrate; format: in vivo; details: Blumeria graminis
[18] = tested on: Pseudoperonospora cubensis; test: whole plant or invertebrate; format: in vivo; details: in Cucumis sativus, 168 h
[19] = tested on: Piricularia oryzae; test: whole plant or invertebrate; format: in vivo; details: Pyricularia oryzae, 192 h, read-out: % Control
[20] = tested on: Septoria nodorum; test: In-vitro plant fungicide test, SEP; format: cell-based; details: Parastagonospora nodorum, read-out: % Control; for inhibition of growth at 50 ppm: rate 50 PPM

Structure (SMILES) | MIC [1] | MIC [2] | MIC [3] | MIC [4] | inhibition of growth at 25 ppm [5] | inhibition of growth at 25 ppm [6] | inhibition of growth at 25 ppm [7] | MIC [8] | inhibition of growth at 25 ppm [9] | inhibition of growth at 25 ppm [10] | inhibition of growth at 25 ppm [11] | inhibition of growth at 25 ppm [12] | inhibition of growth at 25 ppm [13] | MIC [14] | inhibition of growth at 50 ppm [5] | inhibition of growth at 50 ppm [6] | inhibition of growth at 50 ppm [7] | inhibition of growth at 50 ppm [9] | inhibition of growth at 50 ppm [10] | inhibition of growth at 50 ppm [11] | further results
COC(=O)N(CC#CBr)N=Cc1ccc(Cl)cc1 [Compound 1, N'-Methoxycarbonyl-N'-3-bromopropargyl 4-chlorobenzaldehyde hydrazone] | 63 µg/mL (≈ 191 µM) | > 500 µg/mL | > 500 µg/mL | > 500 µg/mL | 0% | 0% | 0% | 250 µg/mL (≈ 759 µM) | 0% | 0% | 0% | 0% | 0% | > 500 µg/mL |  |  |  |  |  |  | 
O=CN(CC#CBr)N=Cc1ccc(Cl)cc1 [Compound 2, N'-Formyl-N'-3-bromopropargyl 4-chlorobenzaldehyde hydrazone] | 63 µg/mL (≈ 210 µM) | > 500 µg/mL | > 500 µg/mL | > 500 µg/mL | 0% | 0% | 0% | 250 µg/mL (≈ 835 µM) | 50% | 0% | 75% | 0% | 0% | > 500 µg/mL |  |  |  |  |  |  | pest or weed control at 600 ppm [15]: 0%; pest or weed control at 600 ppm [16]: 50%; pest or weed control at 600 ppm [17]: 0%
COC(=O)N(CC#CI)N=Cc1ccccc1 [Compound 3, N'-Methoxycarbonyl-N'-3-iodopropargyl benzaldehyde hyrazone] | < 4 µg/mL | 125 µg/mL (≈ 365 µM) | > 500 µg/mL | > 500 µg/mL | 0% | 75% | 0% | 250 µg/mL (≈ 731 µM) | 0% | 75% | 75% | 0% | 100% | < 4 µg/mL | 0% | 100% | 0% | 95% | 100% | 100% | pest or weed control at 200 ppm [15]: 50%; pest or weed control at 200 ppm [18]: 99%; pest or weed control at 200 ppm [19]: 90%; pest or weed control at 200 ppm [16]: 80%; pest or weed control at 200 ppm [17]: 50%; inhibition of growth at 50 ppm [12]: 0%; inhibition of growth at 50 ppm [20]: 75%; inhibition of growth at 50 ppm [13]: 100%
O=C(c1ccccc1)N(CC#CI)N=Cc1ccccc1 [Compound 6, N'-Benzoyl-N'-3-iodopropargyl benzaldehyde hydrazone] | 3 µg/mL (≈ 7.73 µM) | 50 µg/mL (≈ 129 µM) | 50 µg/mL (≈ 129 µM) | 50 µg/mL (≈ 129 µM) | 0% | 0% | 0% | 25 µg/mL (≈ 64.4 µM) | 100% | 100% | 100% | 0% | 0% | 6 µg/mL (≈ 15.5 µM) |  |  |  |  |  |  | inhibition of growth at 25 ppm ([20]; rate 25 PPM): 100%
O=C(c1ccccc1)N(CC#CI)N=Cc1cccc([N+](=O)[O-])c1 [Compound 12, N'-Benzoyl-N'-3-iodopropargyl 3-nitrobenzaldehyde hydrazone] | 100 µg/mL (≈ 231 µM) | > 100 µg/mL | > 100 µg/mL | > 100 µg/mL |  |  |  | > 100 µg/mL |  |  |  |  |  | > 100 µg/mL | 0% | 0% | 0% | 100% | 0% | 0% | inhibition of growth at 50 ppm [12]: 0%; inhibition of growth at 50 ppm [20]: 0%; inhibition of growth at 50 ppm [13]: 95%
